Assay results taken from patent publication US6476012B2, “Estradiol-16α-carboxylic acid esters as locally active estrogens” (Yale University, priority 2001, dated 2002).
Where a name gives a salt, the structure may show the parent alone.

What was measured:
[1] = target: T1, ER in rat uterine cytosol (ERα) (Rattus norvegicus, UniProt P06211); test: Competitive binding to the ER in rat uterine cytosol (RBA vs [3H]E2); conditions: for ER RBA (relative binding affinity): rat uterine estrogen receptor assay, E2 = 100, ± S.D.; for RBA: uterine cytosol (ERα), relative to E2
T1 construct: The uterus was removed and homogenized in ice-cold TEGDMo buffer; from tissue; host or cells: uterine cytosol of castrated female Sprague Dawley rats
T1 sequence (P06211 1-600): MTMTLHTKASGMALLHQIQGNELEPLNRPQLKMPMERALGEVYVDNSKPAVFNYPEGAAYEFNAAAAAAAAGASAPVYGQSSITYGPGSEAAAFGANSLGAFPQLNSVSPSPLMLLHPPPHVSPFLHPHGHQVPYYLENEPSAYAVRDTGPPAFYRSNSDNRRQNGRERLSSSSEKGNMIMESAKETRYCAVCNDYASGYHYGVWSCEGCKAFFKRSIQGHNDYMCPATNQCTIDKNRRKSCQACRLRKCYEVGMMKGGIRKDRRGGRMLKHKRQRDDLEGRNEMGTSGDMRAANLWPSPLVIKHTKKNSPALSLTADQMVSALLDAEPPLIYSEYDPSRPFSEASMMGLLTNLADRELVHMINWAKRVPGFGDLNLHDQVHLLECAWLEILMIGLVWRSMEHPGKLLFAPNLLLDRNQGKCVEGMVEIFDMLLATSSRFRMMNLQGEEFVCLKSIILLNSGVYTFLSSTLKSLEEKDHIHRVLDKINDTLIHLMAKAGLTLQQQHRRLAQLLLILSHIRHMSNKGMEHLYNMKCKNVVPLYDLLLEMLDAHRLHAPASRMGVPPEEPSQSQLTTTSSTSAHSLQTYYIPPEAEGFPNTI
Procedure: Competitive Binding to the Estrogen Receptor ERα and ERβ. […] The ER in uterine cytosol is ERα the classical form of the ER.^38 Female Sprague Dawley rats were castrated and sacrificed 24 h later. The uterus was removed and homogenized in ice-cold TEGDMo buffer (10 mM Tris, 1.5 mM Na2-EDTA, 10% (v/v) glycerol, 1.0 mM dithiothreitol, 25 mM sodium molybdate, pH 7.4 at 4° C.). and centrifuged at 105,000 g for 45 min at 4° C. The supernatant (cytosol) was frozen on dry ice and stored at −80° C. until assay. […] Incubations were carried out on ice overnight and bound radioactivity was separated from free by adsorption with dextran coated charcoal and quantified by counting.^26 Relative Binding Affinity (RBA) was determined by analysis of the displacement curves by the curve-fitting program Prism (Graph-Pad Software inc., San Diego, Calif.). The results shown in Table 1. below, are from at least 3 separate experiments performed in duplicate.

human ERβ and ERα = test: Competitive binding to human ERβ and ERα expressed in Escherichia coli lysates (ratio of RBAs); conditions: RBAs (E2 = 100) in E. coli lysates expressing human ERβ and ERα separately
[2] = system: alkaline phosphatase (AlkP) induction in Ishikawa cells; test: Estrogenic potency in Ishikawa cells: induction of AlkP; format: cell-based, human; conditions: for RSA (estrogenic potency compared to E2): Ishikawa AlkP; for Ishikawa Cell AlkP RSA (relative stimulatory activity): induction of AlkP, E2 = 100, ± S.D.
Procedure: Estrogenic Potency in Ishikawa Cells. The estrogenic potency of the E2-analogs was determined in a estrogen bioassay, the induction of AlkP in human endometrial adenocarcinoma cells (Ishikawa) grown in 96-well microtiter plates as we have previously described.^28 In short, the cells are grown in phenol red free medium with estrogen depleted (charcoal stripped) bovine serum in the presence or absence of varying amounts of the steroids. […] After 3 days, the cells are washed, frozen and thawed, and then incubated with 5 mM p-nitrophenyl phosphate, a chromogenic substrate for the AlkP enzyme, at pH 9.8. To ensure linear enzymatic analysis, the plates are monitored kinetically for the for the production of p-nitrophenol at 405 nm. The relative stimulatory activity is determined by analysis of the curve fitting program Prism. Each compound was analyzed in at least 3 separate experiments performed in duplicate.

[3] = system: esterase(s) in rat hepatic microsomes; test: Esterase assay with rat hepatic microsomes; format: in vitro ADME; conditions: for Esterase RHA (relative hydrolytic activity): E16-1,2 = 100
Procedure: Esterase. Esterase activity was measured in rat hepatic microsomes essentially using the conditions described.^39 Liver obtained from Sprague-Dawley rats was washed with phosphate buffered saline and homogenized in 3 volumes of cold 0.25 M sucrose and centrifuged at 700 g for 10 min and then at 10,000 g for 20 min. The resulting supernatant was centrifuged at 105,000 g for 60 min. The pellet was suspended in 0.1 M phosphate buffer pH 7.4 and washed by centrifugation at 105,000 g for 60 min. The washed pellet was suspended in 0.1 M Tris-HCl pH 8.0 at a concentration of ˜13 mg protein/ml and frozen at −80° C. For assay, the pellets were thawed and diluted with the same buffer. The incubation mixture consisted of the microsomal enzyme preparation, 0.28 mg protein/ml, E2-16α-alkyl esters, 50 μM, added in 10 μL of ethanol, all in a final volume of 1 mL of Tris buffer pH 8.0. Since the rates of reaction are widely different for the various esters, the incubation times were varied accordingly to obtain linear kinetics. At several appropriate time points, 100 μL aliquots were withdrawn and the reaction was quenched with 33 μL CH3CN, followed by a 33 μL of a solution of THF containing 1 […] of the internal standard, 6-ketoestradiol. The quenched aliquot was centrifuged for several minutes on bench-top centrifuge and 80 μl of the supernatant was analyzed for the esterase-hydrolysis product (the corresponding E2-16α-carboxylic acid: E16-1,0 8; E16-2,0 23; E16-3,0 35) by reversed phase HPLC with system H-10 for E2-16-1 and E2-16-2 esters, and with system H-15 for E2-16-3 esters. The E2-16α-carboxyl products, (Rt for E16-1,0 8=7 min and for E16-2,0 23=9 min, E16-3,0 35=6.5 min) and the internal standard, 6-ketoestradiol (Rt 7.5 min in system H-10, and 5 min in system H-15) were quantified at 280 nm on the HPLC UV detector. The UV absorbance was converted to moles of product by comparison to standard curves and corrected for recovery of the internal standard, 6-ketoestradiol. The velocity of the reaction for each ester, in nmol product/min/ml/ was then normalized to the ester, E16-1,2 10 and is shown in Table 1 as relative hydrolytic activity (RHA). The enzymatic velocity for the hydrolysis of E16-1,2 10 was 0.9±0.2 (S.D.) nmol product/min/ml over the various experiments. Since all of the esters could not be tested simultaneously, in each case we compared the rate of hydrolysis of the test compound to that of E16-1,2 10 run concurrently. All compounds were tested in triplicate in 3 separate experiments.

[4] = system: immature female rats (uterine weight); test: In vivo systemic estrogenic assay (uterotrophic assay, uterine weight); set-up: species or system rat
Procedure: FIG. 2 depicts of the results of an in vivo systemic estrogenic assay (uterotrophic assay) as described in the experimental section. […] On the fourth day the animals were killed, the uteri removed and weighed. The total dose is shown. Controls were injected with sesame oil. Error bars are±S.D. n=5. *P<0.05, **P<0.001 when compared to the control.
In Vivo Estrogen Bioassays: Uterine Weight. […] Control animals received sesame oil. On the fourth day, the animals were killed, the uteri were removed, dissected, blotted and weighed. Each compound was assayed in 3 separate experiments with n=5.

[5] = system: ovariectomized mouse vagina (vaginal reductase activity); test: In vivo local estrogenic assay (vaginal reductases); conditions: for dose producing a statistically significant (P<0.001) stimulation of vaginal reductase: intravaginal single dose in 25% propylene glycol in saline (FIG. 3a)
Procedure: FIG. 3 depicts the results of in vivo local estrogenic assay (vaginal assay).
Controls were injected with vehicle. The next morning, 2,3,5-triphenyltetrazolium chloride was instilled in the vagina and thirty minutes later the animals were killed and the vaginal reductase activity was determined spectrophotometrically Panel a: the steroids were dissolved in 10 μL of 25% propylene glycol in saline. Panel b: the steroids were dissolved in 10 μL of sesame oil. n=5. Error bars are±S.D. *P<0.001 compared to the control.
In Vivo Estrogen Bioassays: Vaginal reductases. […] In some experiments as indicated, the method was modified by dissolving and injecting the estrogens in 10 μL of sesame oil. The next morning 0.5 mg of 2,3,5-triphenyltetrazolium chloride in 20 μL of saline was instilled in the vagina. Thirty minutes the animals were killed and the vaginas removed, washed thoroughly with saline and then blotted on filter paper. Each vagina was placed in a 12×75 mm test tube and extracted for 1 hour with ethanol/tetrachloroethylene (3:1). Afterwards, the solvent was removed and the formazan product in the organic extract was quantified at 500 nm. Each compound was assayed on at least 3 separate occasions with at least 5 replicates each time.

[6] = Stability on incubation with heat denatured enzyme under esterase assay conditions; format: in vitro ADME; conditions: heat denatured (1 h at 80° C.) enzyme, 37° C.
Procedure: The various E2-16α-alkyl esters, including the reactive E16-1,2vin 15, were stable under the conditions used in the esterase assay. Each of the substrates was incubated with heat denatured (1 h at 80° C.) enzyme at 37° C. for periods that exceeded the incubation times of the enzyme assay. Only insignificant amounts of carboxyl products were formed from any of these esters during the incubations with denatured enzyme.

Row | Structure (SMILES) | ER RBA (relative binding affinity) [1] | RBA [1] | ERα/ERβ (ratio of the RBAs) (human ERβ and ERα) | RSA (estrogenic potency compared to E2) [2] | Ishikawa Cell AlkP RSA (relative stimulatory activity) [2] | Esterase RHA (relative hydrolytic activity) ([3]; rat hepatic microsomes, ± S.D.) | uterotrophic effect ([4]; 10 μg total dose per animal) | uterotrophic effect expressed as equivalent amount of E2 ([4]; 100 μg total dose) | vaginal estrogenic effect ([5]; 50 ng in sesame oil (FIG. 3b)) | dose producing a statistically significant (P<0.001) stimulation of vaginal reductase [5] | further results
1 | COC(=O)[C@@H]1C[C@H]2[C@@H]3CCc4cc(O)ccc4[C@H]3CC[C@]2(C)[C@H]1O [E16-1,1, Methyl (3,17β-dihydroxyestra-1,3,5(10)-trien-16α-yl) formate] | 35 ± 4 | 35% | 750 | 10% | 10 ±3 | 45 ± 10 | small stimulatory action (P<0.05) | about 4 μg | still not stimulatory | 250 ng | uterotrophic stimulation expressed as equivalent amount of E2 ([4]; 30 μg total dose): ~3 ng; dose producing a reproducible and statistically significant stimulation (P<0.01) ([4]; immature rat, s.c. in sesame oil, 3 days, total dose): 30 to 50 µg
2 | CCOC(=O)[C@@H]1C[C@H]2[C@@H]3CCc4cc(O)ccc4[C@H]3CC[C@]2(C)[C@H]1O [E16-1,2, Ethyl (3,17β-dihydroxyestra-1,3,5(10)-trien-16α-yl) formate] | 40 ± 10 | 40% | 1,300 | 11% | 11 ± 5 | 100 | no measurable stimulation | about 4 μg | still not stimulatory | 250 ng | enzymatic velocity for the hydrolysis ([3]; rat hepatic microsomes 0.28 mg protein/ml, ester 50 μM, pH 8.0, ± S.D.): 0.9±0.2 nmol product/min/ml; uterotrophic effect ([4]; 30 μg total dose): small increase in uterine weight
3 | C[C@]12CC[C@@H]3c4ccc(O)cc4CC[C@H]3[C@@H]1C[C@@H](C(=O)OCCF)[C@@H]2O [E16-1,2F1, 2′-Fluoroethyl (3,17β-dihydroxyestra-1,3,5(10)-trien-16α-yl) formate] | 35 ± 3 | 35% | 2,000 | 13% | 13 ± 5 | 420 ± 40 | – | – | produced a significant estrogenic effect | 100 ng | rate of cleavage relative to the non-fluorinated ester E16-1,2 ([3]; esterase, rat hepatic microsomes): about 4 times; uterotrophic effect ([4]; 100 μg total dose): did not produce a uterotrophic stimulation; uterotrophic effect expressed as equivalent amount of E2 ([4]; 300 μg total dose): less than 5 ng; uterotrophic effect ([4]; 300 μg total dose, other experiments (not shown)): small uterotrophic effect; vaginal estrogenic effect ([5]; 10 ng in sesame oil): consistent stimulation at 10 ng of E16-1,2F1, however, it was not statistically significant; vaginal estrogenic effect expressed as equivalent dose of E2 ([5]; 50 ng in sesame oil (FIG. 3b)): ~20 pg
4 | C=COC(=O)[C@@H]1C[C@H]2[C@@H]3CCc4cc(O)ccc4[C@H]3CC[C@]2(C)[C@H]1O [E16-1,2vin, Vinyl (3,17β-dihydroxyestran-1,3,5(10)-trien-16α-yl) formates] | 6 ± 2 | 6% | – | – | 0.4 ± 0.3 | 20,300 ± 5,500 | – | – | – | – | stability under the conditions used in the esterase assay [6]: stable
